{"source": "patent US11014891B2", "about": "“Reduction-triggered antibacterial sideromycins” (priority 2013, dated 2021)", "assay_in_all_cases": "agar diffusion antibacterial susceptibility assay", "key": {"[1]": {"test_system": "A. baumannii ATCC 17961", "format": "cell-based, Acinetobacter baumannii", "conditions": "ciprofloxacin in H2O, concentration per footnote mark b; 100 μM 2,2′-bipyridine", "excerpt": "The siderophore-ciprofloxacin conjugates 13 and 23 were first evaluated for their ability to inhibit the growth of bacteria using the agar well diffusion test. Representative Gram-positive strains included Bacillus subtilis, Staphylococcus aureus and Micrococcus luteus. The Gram-negative strains studied included Pseudomonas aeruginosa (a wild type K799/wt and a penetration mutant strain K799/61), Escherichia coli, and Acinetobacter baumannii."}, "[2]": {"test_system": "S. aureus SG 511", "format": "cell-based, Staphylococcus aureus", "conditions": "ciprofloxacin in H2O, concentration per footnote mark b", "excerpt": "(§1) Representative Gram-positive strains included Bacillus subtilis, Staphylococcus aureus and Micrococcus luteus. The Gram-negative strains studied included Pseudomonas aeruginosa (a wild type K799/wt and a penetration mutant strain K799/61), Escherichia coli, and Acinetobacter baumannii."}, "[3]": {"test_system": "B. subtilis ATCC 6633", "format": "cell-based, Bacillus subtilis", "conditions": "ciprofloxacin in H2O, concentration per footnote mark c", "excerpt": "as §1"}, "[4]": {"test_system": "E. coli X580", "format": "cell-based, Escherichia coli", "conditions": "ciprofloxacin in H2O, concentration per footnote mark d", "excerpt": "as §1"}, "[5]": {"test_system": "M. luteus ATCC 10240", "format": "cell-based, Micrococcus luteus", "conditions": "ciprofloxacin in H2O, concentration per footnote mark b", "excerpt": "as §1"}}, "data": [{"smiles": "O=C(O)c1cn(C2CC2)c2cc(N3CCNCC3)c(F)cc2c1=O", "note": "[Ciprofloxacin, ciprofloxacin]", "values": [{"measurement": "Diameter of growth inhibition zones", "setting": "[1]", "value": 15, "unit": "p^b"}, {"measurement": "Diameter of growth inhibition zones", "setting": "[2]", "value": "28^b mm"}, {"measurement": "Diameter of growth inhibition zones", "setting": "[3]", "value": "28^c mm"}, {"measurement": "Diameter of growth inhibition zones", "setting": "[4]", "value": "31^d mm"}, {"measurement": "Diameter of growth inhibition zones", "setting": "[5]", "value": 12, "unit": "P^b"}]}]}
